{"source": "patent US7449494B1", "about": "“Polymeric skin moisturizing compounds” (SurfaTech Corporation, priority 2004, dated 2008)", "test_system": "rough dry skin", "assay": "Skin moisturization evaluation: appearance of treated skin under the dissection microscope", "assay_type": "in vivo", "details": "5% solution applied to skin; scale of 1 to 5, 1 being poor and 5 being best", "description": "The effect of moisturization can be measured by the appearance of the skin when treated. Untreated skin that is in need of moisturization is rough, scaly and dry looking under the dissection microscope. The application of the moisturization solution to the skin and its effect upon minimizing roughness, scaling and dry appearance is a good measure of moisturization. We performed such an evaluation and rated the performance of a scale of 1 to 5. 1 being poor and 5 being best."}
{"smiles": "C[N+](C)(C)CCO", "note": "[Choline]", "values": [{"measurement": "Rating (moisturization: minimizing roughness, scaling and dry appearance)", "result": 4}]}
{"smiles": "OCC(O)CO", "note": "[Glycerin]", "values": [{"measurement": "Rating (moisturization: minimizing roughness, scaling and dry appearance)", "result": 2}]}
